Source: patent US20260232681A1, “CRYSTALLINE FORMS OF N-[4-[4-(4-MORPHOLINYL)-7H-PYRROLO[2,3-D]PYRIMIDIN-6- YL]PHENYL]-4-[[3(R)-[(L-OXO-2-PROPEN-L-YL)AMINO]-L-PIPERIDINYL]METHYL]-2-PYRIDINECARBOXAMIDE AS A COVALENT INHIBITOR OF MENIN-MLL INTERACTION” (BIOMEA FUSION, INC., priority 2023, published 2026)
“Also recorded” adds a separate entry of the source.

Legend:
[1] = system: Zucker Diabetic Fatty (ZDF) rats; assay: Glycemic control in ZDF rats, 16-day dosing plus two-week washout (Examples 102, 105); assay type: in vivo, rat
Experimental: The present examples provides the ability of Compound 10 to restore glycemic control to diabetic Zucker diabetic fatty rats (ZDF rats, genotype ZDF-Lepr^fa/Crl; Charles River). Cornicelli et al., 2005, Charles River.
Control and test compounds were stored at 4° C. and prepared weekly as needed. The vehicle for positive control pioglitazone was 0.25% carboxymethylcellulose and 1% Tween® 80 in reverse osmosis deionized water. The vehicle for Compound 10 was 10% DMSO, 10% Solutol HS 15, and 80% (10% hydroxypropyl-β-cyclodextrin in 50 mM citrate buffer at pH 3.0).
On Day −3, twenty-four ZDF rats (plus eight spare ZDF rats) were measured for body weight and non-fasting glucose. LabDiet 5008 was provided ad libitum throughout the study, except during designated procedures, as was water. In order to minimize the effects of stress on blood glucose and body, all animals including the spares received daily sham doses with phosphate buffered saline pH 7.2 (dose volume 5 mL/kg) via gavage beginning on Study Day −5 to Day −1.
Vehicle, control, and test compound were administered via oral gavage according to the following design on Days 1-16.
On Days −3, 1, 8, and 14 non-fasting blood glucose was measured. On Day 15, an oral glucose tolerance test was administered. The animals were weighed, and the animals were placed in clean cages without food. Access to water was provided throughout the procedure. The animals were fasted for five hours and a blood glucose measurement was determined. The animals were dosed via oral gavage with 2 g/kg glucose (10 mL/kg). Blood glucose was determined via tail snip. The second drop of blood from the animal was placed on a hand-held glucometer (Abbott Alpha Trak) at the following times relative to the glucose dose: zero (just prior to glucose dose), 15, 30, 60, 90, and 120 min. Following the final blood glucose measurement, food was returned to the cages. On Day 17, 4-hour fasting glucose was measured. Serum samples were used to measure insulin by ELISA. Analysis was performed in one to three days of each collections. On Day 17, terminal blood collection was obtained at about 8 mL per animal and measured for blood glucose.
ZDF rats were treated daily with Compound 10, vehicle, or pioglitazone for sixteen days and monitored for an additional two weeks post-treatment until Day 29. STZ rat models were induced through pre-treatment of animals on a high-fat diet with low doses of streptozotocin at Day −14 and Day −7 prior to starting treatment at Day Zero until Day 16. ZDF and STZ rats were monitored for fasting blood glucose levels, oral glucose tolerance test (OGTT), insulin and C-peptide levels, HOMA-IR (Homeostatic Model Assessment of Insulin Resistance), blood lipemic levels, and body weight according to the schematic for each model below. ZDF rats were analyzed for indicated readouts for fifteen days post-treatment for OGTT at Day 29, and serum insulin and C-peptide at Day 31.
ZDF Rat Model—three treatment groups 1. Vehicle; 2. Compound 10 at 175 mg/kg; and 3. Pioglitazone at 30 mg/kg; n=10 per group. Daily dosing zero to sixteen days QD→drug wash out at sixteen to twenty-nine days. Rats were monitored for the following parameters through dosing and wash out phases—body weight, fasting blood sugar, blood insulin, C-peptide, and OGTT.

[2] = system: DLBCL cell lines (DHL, THL, DEL, GCB); assay: DLBCL cell line proliferation (Cell Titer Glo, four days); assay type: cell-based
Experimental: (§1) Compound A was tested against a THL cell line (VAL), and a DEL cell line (U2932). An expanded panel of DHL cell lines were tested for sensitivity to Compound A. Ex vivo patient samples of THL and MYC-amplified DLBCL were tested with Compound A. Sensitivity of THL and MYC-driven DLBCL in both in vitro and ex vivo models were compared with clinical reversible menin inhibitors. Compound A was tested against a panel of MM cell lines and ex vivo MM patient samples of p53del, 13qdel, and relapsed/refractory cases.
(§2) DLBCL cell line TOLEDO was cultured in the presence of Compound A or clinical reversible menin inhibitors for six and fourteen hours. Menin protein expression was reduced up to 60% at 1 μM by Compound A after fourteen hours compared to clinical reversible inhibitors at <20% at similar concentrations. Menin protein expression was measured by the Wes system and analyzed using the Compass software (automated western blotting, Protein Simple). Signal was normalized to GAPDH and referenced to DMSO control (FIG. 171E). DLBCL and MM cell lines were cultured with Compound A, bortezomib (PS-341), or DMSO for four days and cell proliferation was measured by Cell Titer Glo. Ex vivo studies of DLBCL and MM models were conducted by measurement of cell proliferation (Cell Titer Glo) after six days of treatment with Compound A, PS-341, or DMSO control.

[3] = system: patient-derived DLBCL Triple Hit Lymphoma (THL) and MYC-amplified PDX samples; assay: Ex vivo DLBCL PDX samples (THL, MYC-amplified), six days; assay type: cell-based, human; conditions: THL/R-CHOP-refractory and MYC amplification/R-EPOCH refractory profiles
Experimental: as §1, §2

KRAS and MEN1 expression = assay: RNA-seq gene expression in MiaPaCa-2 cells; assay type: cell-based, human; set-up: dose or concentration left out as unconfirmed; conditions: MiaPaCa-2 cells after twenty-four hours
Experimental: MOLM-13 and MiaPaCa-2 cells were incubated with Compound A for twenty-four hours and were analyzed by RNA-seq on an Illumina NextSeq 550 platform. […] Cell viability was measured using CellTiterGlo. Human ex vivo PDX tissue models harboring KRAS mutations were cultured with Compound A and clinical reversible menin inhibitors for six days. Cell viability was measured using CellTiter Glo.

[4] = system: CLL samples isolated from patients; assay: Ex vivo CLL patient samples, antileukemic activity; assay type: cell-based, human; conditions: CLL ex vivo patient samples, 1 μM exposure
[5] = 16 days treatment, listed as Compound 10

For `C=CC(=O)N[C@@H]1CCCN(Cc2ccnc(C(=O)Nc3ccc(-c4cc5c(N6CCOCC6)ncnc5[nH]4)cc3)c2)C1` [Compound A, N-[4-[4-(4-morpholinyl)-7H-pyrrolo[2,3-d]pyrimidin-6-yl]phenyl]-4-[[3(R)-[(1-oxo-2-propen-1-yl)amino]-1-piperidinyl]methyl]-2-pyridinecarboxamide], the blood lipemic levels [1, 5] was “significantly reduces; also recorded: Significant reductions”, the body weight [1, 5] was “reduces body weight; also recorded: Significant reductions” and the “oral glucose tolerance test, glucose control” value ([1]; Day 29, after fourteen days of no treatment) was “significant glucose control”. For the same compound, the “oral glucose tolerance test, glucose control” value ([1]; after fifteen days of treatment) was “significant glucose control”, the “serum insulin and C-peptide levels” value ([1]; after two weeks of treatment, p<0.05) was “significantly reduced” and the “insulin in the non-fasting and fasting states” value ([1]; compared to vehicle and control) was “significant reduction”. For the same compound, the “4-hour fasting insulin and glucose” value ([1]; no therapy for two weeks) was “increasing insulin and glucose lowering”, the “insulin resistance (HOMA-IR)” value ([1]; non-fasting and fasting, listed as Compound 10) was “significant reduction; also recorded: increases insulin sensitivity; also recorded: reduced” and the “glucose in the non-fasting and fasting states” value ([1]; oral gavage Days 1-16, compared to vehicle and control) was “significant reduction”. For the same compound, the C-peptide ([1]; two weeks after therapy) was “increasing C-peptide”, the cell lethality ([2]; DHL, THL, and DEL DLBCL cell lines, four days) was greater than 90% and the “growth inhibition of THL and DEL cell line models” value ([2]; VAL, U2932) was “complete growth inhibition”. For the same compound, the “growth inhibition of ex vivo patient samples” value [3] was “complete growth inhibition”, the “KRAS and MEN1 expression levels” value (KRAS and MEN1 expression) was “marked reduction” and the cell lethality [4] was greater than 98%.
